# In EP0738149B1 (priority 1994, dated 1995):
# How the values were obtained:
# [1] = test system: mechanically dissociated neonatal rat cerebellum; test: Enhancement of cell survival in cultures of neonatal rat cerebellum (no NMDA); format: cell-based; conditions: 24 hours after addition, percentage of the number of control cells on the fourth day
# Experimental: The cerebellum was aseptically dissociated from 6 or 7-day old rat pups and placed in a 15ml sterile plastic conical tube containing 3ml of Dulbecco's modified Eagle's medium (DMEM) with a high glucose concentration ([…]) and 2mM (v/v) L-glutamine and an antibiotic antimitotic mixture. The cerebella were then dissociated after 20-25 passages through a sterile 13 gauge, 10cm long stainless steel needle attached to a 5ml syringe with an inserted 45 micrometer pore nylon sieve. The dissociated cells were centrifuged at 200g for 5 minutes. […] Cell viability was determined by the tryptan blue exclusion test.
# Cells were plated at a density of 200/mm^2 on poly-L-lysine coated surfaces. Poly-L-lysine coated glass coverslips were prepared at least one hour in advance of plating by immersing sterile coverslips in sterile distilled water solution containing 15 microgram/ml poly-L-lysine, and washing in sterile water just prior to use. […] After three days in culture, the media was replaced with media containing the desired test compound. Each test compound was tested in duplicate. Toxic-dose response was determined for each compound.
# Cell cultures were grown as described above but in the absence of NMDA and after 3 days a dose of test compound was added. Cell survival was monitored as described above.
# [2] = test system: rats; conditions: Rattus norvegicus, po, read-out: RATS scMet ED50
structure (smiles),measurement,setting,value
"CC(=O)N[C@@H]1CCc2ccccc21 [Example 18, (R)-N-Acetyl-1-aminoindan]",% ENHANCED SURVIVAL,[1]; 0.01 µM,145%
same,% ENHANCED SURVIVAL,[1]; 0.10 µM,130%
same,% ENHANCED SURVIVAL,[1]; 1.00 µM,126%
same,ED50,[2],> 250 mg/kg
